{"source": "patent US9963488B2", "about": "“Variants of the lantibiotic MU1140 and other lantibiotics with improved pharmacological properties and structural features” (priority 2012, dated 2018)", "key": {"[1]": {"tested_on": "Staphylococcus aureus", "conditions": "pilot study; 60 times the LD50 of Staphylococcus aureus administered; cited from earlier work"}, "[2]": {"tested_on": "Gram-negative bacteria or yeast", "conditions": "cited from earlier work"}, "[3]": {"conditions": "cited from earlier work"}, "[4]": {"tested_on": "Streptococcus mutans UA159", "assay": "Minimum inhibitory concentration", "type": "cell-based", "conditions": "THyex medium; overnight in shaking incubator; peptide about 90% purity", "procedure": "(§1) Wild-type mutacin 1140, mutacin 1140 with a F1I mutation, mutacin 1140 with a W4A mutation, and mutacin 1140 with a R13D mutation was purified to about 90% purity (measured via HPLC). The minimum inhibitory concentration (MIC) of MU1140 and variants of MU1140 was determined against several bacteria. The MIC is the lowest concentration of MU1140 that will inhibit the visible growth of a microorganism after 24 hour incubation. A lower MIC is an indication of greater inhibitory activity. Preparation of the antimicrobial agent and bacterial inoculum for minimum inhibitory concentrations (MICs) was performed by following the method described in Clinical Laboratory Standard Institute (CLSI) M07-8A with some minor modifications. Streptococcus mutans UA159 was tested overnight in a shaking incubator to maintain uniform dispersion of the bacteria. Clostridium difficile UK1 was tested in an anaerobic chamber at 37° C. The medium used was THyex."}, "[5]": {"tested_on": "Staphylococcus aureus FA1", "assay": "Minimum inhibitory concentration", "type": "cell-based", "conditions": "THyex medium; 24 hour incubation; peptide about 90% purity", "procedure": "as §1"}, "[6]": {"tested_on": "Clostridium difficile UK1", "assay": "Minimum inhibitory concentration", "type": "cell-based", "conditions": "THyex medium; anaerobic chamber at 37° C.; peptide about 90% purity", "procedure": "as §1"}, "[7]": {"tested_on": "Streptococcus pneumonia FA1", "assay": "Minimum inhibitory concentration", "type": "cell-based", "conditions": "THyex medium; 24 hour incubation; peptide about 90% purity", "procedure": "as §1"}, "[8]": {"tested_on": "Micrococcus luteus ATCC10240", "assay": "Minimum inhibitory concentration", "type": "cell-based", "conditions": "THyex medium; 24 hour incubation; peptide about 90% purity", "procedure": "as §1"}, "[9]": {"tested_on": "all Gram positive bacteria against which it was tested", "conditions": "cited from earlier work"}, "[10]": {"tested_on": "S. aureus or Streptococcus pneumoniae", "conditions": "repeated subculture in medium with sub-lethal concentrations; cited from earlier work"}, "[11]": {"conditions": "murine models, cited from earlier work"}, "[12]": {"tested_on": "S. pneumonia", "conditions": "cited from earlier work"}, "[13]": {"tested_on": "multi-drug resistant strains of S. aureus", "conditions": "cited from earlier work"}, "[14]": {"tested_on": "vancomycin-resistant Enterococcus faecium (VREF)", "conditions": "cited from earlier work"}}}
{"substance": "Mu1140 Wild-type: wild-type lantibiotic MU1140 (SEQ ID NO:17) produced by Streptococcus mutans strain JH1140 (FKAWXLAXPGAARXGAFNAYA; not fully specified; lantibiotic post-translational modifications; DISULFID (3)..(7); (5)..(5) X is Dha amino acid; DISULFID (8)..(11); MOD_RES (8)..(8) Abu; (14)..(14) X is Dhb amino acid; DISULFID (16)..(21); (19)..(21) lanthionine bridge)", "values": [{"measurement": "efficacy", "setting": "[1]", "result": "efficacy was achieved"}, {"measurement": "activity", "setting": "[2]", "result": "no activity"}, {"measurement": "cytotoxicity in vitro", "setting": "[3]", "result": "low cytotoxicity"}, {"measurement": "MIC Streptococcus mutans UA159", "setting": "[4]", "result": 2}, {"measurement": "MIC Staphylococcus aureus FA1", "setting": "[5]", "result": 16}, {"measurement": "MIC Clostridium difficile UK1", "setting": "[6]", "result": 16}, {"measurement": "MIC Streptococcus pneumonia FA1", "setting": "[7]", "result": 0.5}, {"measurement": "MIC Micrococcus luteus ATCC10240", "setting": "[8]", "result": 0.0625}, {"measurement": "minimum inhibitory concentration (MIC)", "setting": "[9]", "result": "submicromolar"}, {"measurement": "development of significant resistance", "setting": "[10]", "result": "not observed"}, {"measurement": "toxicity", "setting": "[11]; intravenous route", "result": "low toxicity"}, {"measurement": "distribution", "setting": "[11]", "result": "distributed into all body compartments"}, {"measurement": "mode of antibacterial action", "setting": "[12]", "result": "bactericidal"}, {"measurement": "mode of antibacterial action", "setting": "[13]", "result": "bactericidal"}, {"measurement": "mode of antibacterial action", "setting": "[14]", "result": "bacteriostatic"}]}
